Assay results from ChEMBL document CHEMBL1157435, “Synthesis of 3',4'-epoxynoraristeromycin analogs for molecular labeling probe of S-adenosyl-l-homocysteine hydrolase” (Bioorg Med Chem, 2008).
Active and inactive are the calls of the source. No cut-off for these calls is given here.

Tests used:
Adenosylhomocysteinase = Adenosylhomocysteinase (Homo sapiens, UniProt P23526); experiment: Inhibition of human SAHH
[1] = (§1) Inhibition of Plasmodium falciparum SAHH
Plasmodium falciparum = experiment: as §1

Kinact (Adenosylhomocysteinase) [min⁻¹]	Ki (Adenosylhomocysteinase) [µM]	Kinact (Plasmodium falciparum) [min⁻¹]	Activity (Plasmodium falciparum)	SMILES	Ki [1] [µM]
0.09	–	–	–	Nc1ncnc2c1ncn2C[C@H](O)[C@H](O)C=O	–
0.133	20.3	0.099	–	Nc1nc(F)nc2c1ncn2[C@@H]1C[C@H]2O[C@H]2[C@H]1O	14.3
0.552	12.4	–	inactive	Nc1ncnc2c1ncn2[C@@H]1C[C@H]2O[C@H]2[C@H]1O	–
